Experimental data published in BindingDB's records for doi:10.1016/j.bioorg.2014.05.010 (Ain Shams University, 2014).

biological target: Vascular endothelial growth factor receptor 2 (Homo sapiens, UniProt P35968); test: In vitro Inhibition Assay; conditions: 30 °C
Method: Assays are performed for 15 min at 30 °C, with 50 µM of P33-ATP in a final volume of 25 µL. The assays are terminated by spotting 20 µL of the reaction mixture onto a phosphocellulose P81 plate. The P81 plate was washed 3 times for ~15 min each in a 1% phosphoric acid solution to remove excess unreacted P33-ATP.

Sequence of Vascular endothelial growth factor receptor 2 (P35968 whole entry): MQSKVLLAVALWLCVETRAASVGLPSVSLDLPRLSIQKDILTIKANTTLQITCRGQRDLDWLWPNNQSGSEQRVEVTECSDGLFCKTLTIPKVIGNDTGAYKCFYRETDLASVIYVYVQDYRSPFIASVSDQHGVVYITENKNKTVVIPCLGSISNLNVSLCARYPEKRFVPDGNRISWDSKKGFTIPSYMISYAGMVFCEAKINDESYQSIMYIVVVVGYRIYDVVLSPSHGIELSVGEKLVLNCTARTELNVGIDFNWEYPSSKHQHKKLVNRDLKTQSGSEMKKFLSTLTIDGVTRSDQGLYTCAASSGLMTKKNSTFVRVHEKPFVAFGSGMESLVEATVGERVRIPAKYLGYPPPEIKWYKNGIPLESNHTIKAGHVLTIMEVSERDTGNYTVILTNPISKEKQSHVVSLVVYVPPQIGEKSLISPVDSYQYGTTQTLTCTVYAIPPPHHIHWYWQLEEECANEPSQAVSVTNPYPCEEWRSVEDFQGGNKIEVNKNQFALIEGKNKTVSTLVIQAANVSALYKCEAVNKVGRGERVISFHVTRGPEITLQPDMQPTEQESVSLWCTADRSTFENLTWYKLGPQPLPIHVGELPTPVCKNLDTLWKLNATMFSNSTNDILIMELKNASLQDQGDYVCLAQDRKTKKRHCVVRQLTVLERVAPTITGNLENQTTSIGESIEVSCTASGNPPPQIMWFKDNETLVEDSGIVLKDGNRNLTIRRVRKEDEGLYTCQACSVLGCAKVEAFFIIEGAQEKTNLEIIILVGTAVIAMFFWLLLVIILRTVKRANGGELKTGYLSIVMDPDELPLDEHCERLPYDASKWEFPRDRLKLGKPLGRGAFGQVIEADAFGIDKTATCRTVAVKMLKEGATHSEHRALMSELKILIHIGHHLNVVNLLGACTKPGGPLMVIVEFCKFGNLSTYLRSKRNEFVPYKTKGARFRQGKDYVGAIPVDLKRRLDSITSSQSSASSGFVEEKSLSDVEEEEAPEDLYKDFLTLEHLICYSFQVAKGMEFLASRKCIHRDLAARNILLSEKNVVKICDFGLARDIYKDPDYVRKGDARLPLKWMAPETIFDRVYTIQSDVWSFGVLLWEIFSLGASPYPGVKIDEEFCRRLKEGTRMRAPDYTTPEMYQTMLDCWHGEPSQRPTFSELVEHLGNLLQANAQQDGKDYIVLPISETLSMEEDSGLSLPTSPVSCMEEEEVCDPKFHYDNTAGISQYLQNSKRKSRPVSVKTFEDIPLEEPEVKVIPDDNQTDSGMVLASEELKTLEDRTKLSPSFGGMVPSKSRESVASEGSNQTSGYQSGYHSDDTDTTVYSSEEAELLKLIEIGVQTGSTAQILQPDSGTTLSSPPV

Compound | IC50 [µM]
COc1ccc(Nc2nc3ccc(NC(=O)Nc4ccccc4)cc3[nH]c2=O)cc1 [1-(2-((4-Methoxyphenyl)amino)-3-oxo-3,4 dihydroquinoxalin-6-yl)-3-phenylurea (VIIa)] | 10.3
O=C(Nc1ccccc1)Nc1ccc(Nc2cnc3cc([N+](=O)[O-])ccc3n2)cc1 [1-(4-((6-Nitroquinoxalin-2-yl)amino)phenyl)-3-phenylurea (XXIa)] | 268
O=C(Nc1ccc(Nc2cnc3cc([N+](=O)[O-])ccc3n2)cc1)Nc1cccc(Cl)c1 [1-(3-Chlorophenyl)-3-(4-((6-nitroquinoxalin-2-yl)amino)-phenyl)urea (XXIb)] | 85.4
COc1ccc(Nc2nc3ccc(NC(=O)c4ccccc4C(=O)O)cc3[nH]c2=O)cc1 [2-((2-((4-Methoxyphenyl)amino)-3-oxo-3,4-dihydroquinoxalin-6-yl)carbamoyl)benzoic acid (IX)] | 61.8
COc1ccc(Nc2cnc3cc(NC(=O)Nc4cccc(C)c4)ccc3n2)cc1 [1-(2-((4-Methoxyphenyl)amino)quinoxalin-6-yl)-3-(m-tolyl) urea (XVIc)] | 210
